Literature values as cited in patent publication US20090317487A1, “KITS FOR PREVENTION AND TREATMENT OF RHINITIS” (priority 2006, published 2009).

Tested on: infectious rhinitis (common cold)
Conditions: patients; literature studies (Mossad 1996, Prasad 2000, Farr 1987)

SMILES	effect on severity and/or duration of infectious rhinitis (common cold)
CC(=O)[O-].CC(=O)[O-].[Zn+2] [zinc acetate]	reduced duration of infection
[Zn] [zinc]	significant effect on the severity and duration of infectious rhinitis
